Consider 17 compounds from patent EP4755886A1 (Chengdu Chipscreen Pharmaceutical Ltd., priority 2023, dated 2025).

A word on the inhibition: it is the drop in the measured response relative to a control, in per cent. Broadly, the AUC(0-t) is the area under the concentration-time curve up to a stated or last time point. A lower AUC(0-t) goes with less exposure. One may read the Cmax as the maximum level reached in the sampled fluid or tissue.

A value given as a limit tells only on which side of the number the result lay.

For one series, the system named is wild-type HCT-116 cells. Put plainly: Cell proliferation (MTS), wild-type HCT-116. In kind it is cell-based. To be noted: Homo sapiens, 240 h; wild-type HCT-116, 10 days with compound, MTS reading; read-out: IC50 HCT116 WT. In a few lines: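 Wild-type HCT-116 cells were seeded at 100 cells/well in McCoy's 5A/10% FBS. From day 1 they were treated with compound in 3-fold dilutions (initial 20 µM, 8 points) for 10 days at 37° C. Proliferation was read by MTS on day 11, and IC50 was obtained from a four-parameter logistic fit.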

Another series relates to MTAP^-/- HCT-116 cells. Put plainly: Cell proliferation (MTS), MTAP-/- HCT-116. Type of series: cell-based, human. To be noted: for Selectivity: HCT116 WT IC50 relative to HCT116 MTAP-/- IC50; for IC50: Homo sapiens, 240 h, MTAP-/- HCT-116, 10 days with compound, MTS reading, read-out: IC50 HCT116 MTAP-/-. In a few lines:
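MTAP-/- (CRISPR/Cas9 biallelic knockout) or wild-type HCT-116 cells seeded at 100 cells/well, treated next day with 8-point 3-fold dilutions (top 20 µM) for 10 days at 37 °C, 5% CO2. Viability read by MTS; IC50 from four-parameter logistic fit of inhibition rate vs log concentration.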

A further series addresses T1, hERG (Homo sapiens, UniProt Q12809).
T1 construct: purchased ThermoFisher Scientific PV5365
Put plainly: hERG test (Predictor hERG Fluorescence Polarization Assay Kit). In kind it is binding. As to conditions: for inhibition at 3.5 h, 10 µM: human, probe Predictor hERG Tracer Red, 10 µM test substance, three duplicate wells; for IC50: only 10 µM tested. As to the method:
Predictor™ hERG Fluorescence Polarization Assay Kit (ThermoFisher Scientific, PV5365).
The procedures in the kit instructions were followed: 4× Predictor™ hERG Tracer Red, 4× E-4031, and 4× test substance solutions (final assay concentration: 10 µM) were prepared in advance. 5 µL Predictor™ hERG FP Assay Buffer and 5 µL Predictor™ hERG Membrane were added sequentially to the Assay Blank group in a 384-well plate. 2.5 µL Predictor™ hERG FP Assay Buffer, 2.5 µL of 4× E-4031, and 2.5 µL of 4× test substance were added to the negative control group, the positive control group, and the test substance group, respectively, and then 5 µL Predictor™ hERG Membrane and 2.5 µL of 4× Predictor™ hERG Tracer Red were sequentially added. The total volume of the experimental system was 10 µL, and three duplicate wells were set for each group. After loading, the plate was gently tapped to mix well and incubated at room temperature (25 °C) in the dark for 3.5 h. After the incubation was completed, the fluorescence polarization value mP was measured on a microplate reader, and G Factor was 2.14.
The inhibition rate of the test substance was calculated using the following formula: [formula]

The nature of a further series: PK experiment in mice. As to conditions: female, BALB/c, mouse, plasma, po, 10 mg/kg.

T1 sequence (Q12809 whole entry): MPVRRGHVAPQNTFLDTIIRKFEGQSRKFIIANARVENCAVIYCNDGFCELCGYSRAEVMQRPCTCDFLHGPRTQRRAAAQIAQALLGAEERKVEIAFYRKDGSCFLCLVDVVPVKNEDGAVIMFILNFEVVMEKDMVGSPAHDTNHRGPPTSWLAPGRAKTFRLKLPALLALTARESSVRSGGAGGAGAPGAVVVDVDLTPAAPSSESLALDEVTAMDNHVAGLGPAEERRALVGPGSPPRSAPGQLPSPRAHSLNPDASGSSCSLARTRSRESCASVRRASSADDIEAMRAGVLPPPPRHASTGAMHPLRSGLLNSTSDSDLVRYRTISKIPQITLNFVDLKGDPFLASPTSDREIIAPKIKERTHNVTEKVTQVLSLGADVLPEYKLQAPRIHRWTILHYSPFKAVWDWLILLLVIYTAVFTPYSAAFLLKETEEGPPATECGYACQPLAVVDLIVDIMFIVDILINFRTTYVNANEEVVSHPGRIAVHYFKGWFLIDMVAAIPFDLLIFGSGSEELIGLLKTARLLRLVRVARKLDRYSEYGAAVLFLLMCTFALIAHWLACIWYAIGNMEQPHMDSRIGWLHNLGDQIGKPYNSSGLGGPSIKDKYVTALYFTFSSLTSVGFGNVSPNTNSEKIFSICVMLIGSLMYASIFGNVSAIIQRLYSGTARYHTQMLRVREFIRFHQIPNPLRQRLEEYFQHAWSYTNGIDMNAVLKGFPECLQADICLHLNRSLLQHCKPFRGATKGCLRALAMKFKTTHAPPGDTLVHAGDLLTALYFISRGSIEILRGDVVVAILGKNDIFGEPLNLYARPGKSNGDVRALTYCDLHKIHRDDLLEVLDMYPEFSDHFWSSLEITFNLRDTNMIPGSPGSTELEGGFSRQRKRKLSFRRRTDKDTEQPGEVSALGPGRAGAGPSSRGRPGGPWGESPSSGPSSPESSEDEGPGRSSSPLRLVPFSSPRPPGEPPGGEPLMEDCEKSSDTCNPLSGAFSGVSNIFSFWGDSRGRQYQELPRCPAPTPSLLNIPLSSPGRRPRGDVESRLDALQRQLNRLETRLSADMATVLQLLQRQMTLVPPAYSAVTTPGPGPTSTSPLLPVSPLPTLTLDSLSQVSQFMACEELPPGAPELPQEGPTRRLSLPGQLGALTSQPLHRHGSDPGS
Experimental for PK experiment in mice: Experimental materials: the experimental animals were healthy adult female BALB/c mice (provided by Sichuan Vital River Laboratory Animal Technology Co., Ltd.).
Administration mode and sample collection in mice: BALB/c female mice received oral intragastrical administration (10 mg/kg, vehicle: 0.5% methylcellulose/0.2% Tween 80), and 60 µL of whole blood from the venous plexus of the fundus of the mice at different time points was collected at 0.25 h, 0.5 h, 1 h, 2 h, 4 h, 6 h, 8 h, and 24 h after administration and centrifuged at 4000 rpm for 6 min to collect plasma.
10 µL of mouse plasma sample was added to 190 µL of acetonitrile solution containing an internal standard to precipitate protein. The mixture was vortexed for 10 min and centrifuged at 4000 rpm for 10 min. The supernatant was collected and added to a 96-well plate. The samples were analyzed by LC-MS/MS. The drug concentrations in the plasma of mice at different time points after intragastric administration of the example compounds were measured by an LC-MS/MS method, and the related pharmacokinetic parameters were calculated, such that the pharmacokinetic behavior of the compounds in the mice was studied, and the pharmacokinetic characteristics were evaluated.

In the case of `Cc1ncccc1C#Cc1ccc2c(c1)OC[C@H]2N(C)C(=O)c1cc2c3c(c(N)nc2cc1Cl)COC3` [Compound 57A, (S)-4-amino-7-chloro-N-methyl-N-(6-((2-methylpyridin-3-yl)ethynyl)-2,3-dihydrobenzofuran-3-yl)-1,3-dihydrofuro[3,4-c]quinoline-8-carboxamide], the IC50 with wild-type HCT-116 cells amounted to 1000 nM. Moreover, in the series with MTAP^-/- HCT-116 cells, the Selectivity was 125 and the IC50 is 8 nM. Also, on hERG, the inhibition at 3.5 h, 10 µM is 14.2 ± 18% and the IC50 is over 10000 nM. Moreover, in “PK experiment in mice”, the AUC(0-t) turned out to be 10500 ± 2400 ng·h/mL and the highest level (Cmax) was 1810 ± 195 ng/mL.
In the case of `CN(C(=O)c1ccc2nc(N)c3cnn(C)c3c2c1)C1COc2cc(C#Cc3cnn(C(F)F)c3)ccc21` (centres unmarked) [Compound 30, 4-amino-N-(6-((1-(difluoromethyl)-1H-pyrazol-4-yl)ethynyl)-2,3-dihydrobenzofuran-3-yl)-N,1-dimethyl-1H-pyrazolo[4,3-c]quinoline-8-carboxamide], the IC50 in the series on wild-type HCT-116 cells came out at 1750 nM. In the series on MTAP^-/- HCT-116 cells, the Selectivity was 201 and the IC50 turned out to be 8.7 nM. In “PK experiment in mice”, this compound yielded an AUC(0-t) of 12600 ± 1360 ng·h/mL and a peak concentration (Cmax) of 984 ± 123 ng/mL.
On the same counts, the results for `CN(C(=O)c1cc2c3c(c(N)nc2cc1Cl)COC3)[C@@H]1COc2cc(C#Cc3cccnc3F)ccc21` [Compound 61A, (S)-4-amino-7-chloro-N-(6-((2-fluoropyridin-3-yl)ethynyl)-2,3-dihydrobenzofuran-3-yl)-N-methyl-1,3-dihydrofuro[3,4-c]quinoline-8-carboxamide] are 640 nM, 91, 7 nM, 22200 ± 2710 ng·h/mL and 2080 ± 299 ng/mL.
On the same counts, the results for `CN(C(=O)c1cc2c3c(c(N)nc2cc1Cl)COC3)[C@@H]1COc2cc(C#Cc3cnc4n3CCC4)ccc21` [Compound 75A, (S)-4-amino-7-chloro-N-(6-((6,7-dihydro-5H-pyrrolo[1,2-a]imidazol-3-yl)ethynyl) -2,3-dihydrobenzofuran-3-yl)-N-methyl-1,3-dihydrofuro[3,4-c]quinoline-8-carbo xamide] are 424 nM, 106, 4 nM, 27000 ± 4260 ng·h/mL and 5010 ± 846 ng/mL.
In the case of `Cc1c(C#Cc2ccc3c(c2)OC[C@H]3N(C)C(=O)c2cc3c4c(c(N)nc3cc2Cl)COC4)cnn1C` [Compound 52A, (S)-4-amino-7-chloro-N-(6-((1,5-dimethyl-1H-pyrazol-4-yl)ethynyl)-2,3-dihydrobenzofuran-3-yl)-N-methyl-1,3-dihydrofuro[3,4-c]quinoline-8-carboxamide], the IC50 with wild-type HCT-116 cells turned out to be 487 nM. For the same compound, in the series on MTAP^-/- HCT-116 cells, the Selectivity is given as 152 and the IC50 came to 3.2 nM. Also, on hERG, the inhibition at 3.5 h, 10 µM is 10.4 ± 49.1% and the IC50 was over 10000 nM. In “PK experiment in mice”, this compound displayed an AUC(0-t) of 14200 ± 2430 ng·h/mL and a peak concentration (Cmax) of 1500 ± 313 ng/mL.
For `CN(C(=O)c1ccc2nc(N)c3cnn(C)c3c2c1)C1COc2cc(C3CC3)ccc21` (centres unmarked) [Reference Example 3, reference compound], in “PK experiment in mice”, the AUC(0-t) turned out to be 5130 ± 2920 ng·h/mL and the highest concentration (Cmax) is 741 ± 601 ng/mL.
Regarding `CN(C(=O)c1cc2c3c(c(N)nc2cc1Cl)COC3)[C@@H]1COc2cc(C#Cc3cnc4n3CCCC4)ccc21` [Compound 74A, (S)-4-amino-7-chloro-N-methyl-N-(6-((5,6,7,8-tetrahydroimidazo[1,2-a]pyridin-3-yl)ethynyl)-2,3-dihydrobenzofuran-3-yl)-1,3-dihydrofuro [3,4-c] quinoline-8-carb oxamide], the IC50 in the series on wild-type HCT-116 cells was 472 nM. Also, in the series on MTAP^-/- HCT-116 cells, the Selectivity came to 175 and the IC50 worked out at 2.7 nM. Further, in the series “PK experiment in mice”, the AUC(0-t) turned out to be 14500 ± 1760 ng·h/mL and the Cmax is 2810 ± 780 ng/mL.
Take `CN1CCn2c(C#Cc3ccc4c(c3)OC[C@H]4N(C)C(=O)c3cc4c(cc3F)nc(N)c3cnn(C)c34)cnc2C1` [Compound 46A, (S)-4-amino-7-fluoro-N,1-dimethyl-N-(6-((7-methyl-5,6,7,8-tetrahydroimidazo[1,2-a]pyrazin-3-yl)ethynyl)-2,3-dihydrobenzofuran-3-yl)-1H-pyrazolo[4,3-c]quinoline-8-carboxamide]: in the series on wild-type HCT-116 cells, the IC50 amounted to 158 nM. In addition, in the series with MTAP^-/- HCT-116 cells, the Selectivity came to 144 and the IC50 was found to be 1.1 nM. For the same compound, on hERG, the inhibition at 3.5 h, 10 µM was 43.9 ± 18.8% and the IC50 is over 10000 nM.
On to `CN(C(=O)c1cc2c3c(c(N)nc2cc1Cl)COC3)C1COc2cc(C#Cc3cnn(C)c3)ccc21` (centres unmarked) [Compound 40, 4-amino-7-chloro-N-methyl-N-(6-((1-methyl-1H-pyrazol-4-yl)ethynyl)-2,3-dihydrobenzofuran-3-yl)-1,3-dihydrofuro[3,4-c]quinoline-8-carboxamide], for which, in the series on wild-type HCT-116 cells, the IC50 turned out to be 1460 nM. In addition, in the series with MTAP^-/- HCT-116 cells, the Selectivity stood at 252 and the IC50 came out at 5.8 nM. For the same compound, at hERG, the inhibition at 3.5 h, 10 µM is 22% and the IC50 was over 10000 nM.
For the compound `CN(C(=O)c1cc2c3c(c(N)nc2cc1Cl)COC3)[C@@H]1COc2cc(Br)ccc21` [Reference Example 4, reference compound], in “PK experiment in mice”, the area under the curve AUC(0-t) was determined as 3270 ± 588 ng·h/mL and the Cmax worked out at 649 ± 45 ng/mL.
With `Cc1ncccc1C#Cc1ccc2c(c1)OCC2N(C)C(=O)c1cc2c(cc1F)nc(N)c1cnn(C)c12` (centres unmarked) [Compound 45, 4-amino-7-fluoro-N,1-dimethyl-N-(6-((2-methylpyridin-3-yl)ethynyl)-2,3-dihydrobenzofuran-3-yl)-1H-pyrazolo[4,3-c]quinoline-8-carboxamide], the values for the IC50 with wild-type HCT-116 cells, in the series with MTAP^-/- HCT-116 cells and at hERG were 654 nM, 5.9 nM and over 10000 nM, respectively. For the same compound, the Selectivity in the series on MTAP^-/- HCT-116 cells was determined as 111. For the same compound, at hERG, the inhibition at 3.5 h, 10 µM is 21%.
For the compound `Cn1cc(C#Cc2ccc3c(c2)OCC3N(C(=O)c2ccc3nc(N)c4cnn(C)c4c3c2)C2CC2)cn1` (centres unmarked) [Compound 2, 4-amino-N-cyclopropyl-1-methyl-N-{6-[(1-methylpyrazol-4-yl)ethynyl]-2,3-dihydro-1-benzofuran-3-yl}pyrazolo[4,3-c]quinoline-8-carboxamide], in the series on wild-type HCT-116 cells, the IC50 is 1030 nM. Further, in the series on MTAP^-/- HCT-116 cells, the Selectivity is given as 74 and the IC50 turned out to be 13.9 nM.
On the same counts, the results for `Cc1c(C#Cc2ccc3c(c2)OCC3N(C)C(=O)c2cc3c(cc2F)nc(N)c2cnn(C)c23)cnn1C` (centres unmarked) [Compound 23, 4-amino-N-(6-((1,5-dimethyl-1H-pyrazol-4-yl)ethynyl)-2,3-dihydrobenzofuran-3-yl)-7-fluoro-N,1-dimethyl-1H-pyrazolo[4,3-c]quinoline-8-carboxamide] are 307 nM, 77 and 4 nM.
For `CN(C(=O)c1cc2c(cc1F)nc(N)c1cnn(C)c12)C1COc2cc(C#Cc3cnn(C)c3)ccc21` (centres unmarked) [Compound 5, 4-amino-7-fluoro-N,1-dimethyl-N-(6-((1-methyl-1H-pyrazol-4-yl)ethynyl)-2,3-dihydrobenzofuran-3-yl)-1H-pyrazolo[4,3-c]quinoline-8-carboxamide], in that order: 584 nM, 97 and 6 nM.
For `CCN(C(=O)c1ccc2nc(N)c3cnn(C)c3c2c1)C1COc2cc(C#Cc3cnn(C)c3)ccc21` (centres unmarked) [Compound 7, 4-amino-N-ethyl-1-methyl-N-(6-((1-methyl-1H-pyrazol-4-yl)ethynyl)-2,3-dihydrobenzofuran-3-yl)-1H-pyrazolo[4,3-c]quinoline-8-carboxamide], in that order: 593 nM, 110 and 5.4 nM.
As to `CN(C(=O)c1ccc2nc(N)c3cnn(C)c3c2c1)C1COc2cc(C#Cc3cn(C)nc3C(F)(F)F)ccc21` (centres unmarked) [Compound 31, 4-amino-N,1-dimethyl-N-(6-((1-methyl-3-(trifluoromethyl)-1H-pyrazol-4-yl)ethynyl)-2,3-dihydrobenzofuran-3-yl)-1H-pyrazolo[4,3-c]quinoline-8-carboxamide], the IC50 in the series with wild-type HCT-116 cells was found to be 1460 nM. Further, in the series with MTAP^-/- HCT-116 cells, the Selectivity is listed as 102 and the IC50 was 14.2 nM.
Turning to `CN(C(=O)c1ccc2nc(N)c3cnn(C)c3c2c1)C1COc2cc(C#Cc3cn(C)nc3Cl)ccc21` (centres unmarked) [Compound 34, 4-amino-N-(6-((3-chloro-1-methyl-1H-pyrazol-4-yl)ethynyl)-2,3-dihydrobenzofuran-3-yl)-N,1-dimethyl-1H-pyrazolo[4,3-c]quinoline-8-carboxamide], the IC50 is 1140 nM in the series with wild-type HCT-116 cells and 7.6 nM with MTAP^-/- HCT-116 cells. For the same compound, the Selectivity with MTAP^-/- HCT-116 cells was determined as 150.
